BindingDB's records for PubMed 35785990 (Sage Therapeutics, 2022)

Molecular target: Inward rectifier potassium channel 2 (Homo sapiens) (UniProt P63252)
Test: Inhibition of Kir2.1 (unknown origin) by patch clamp method

Inward rectifier potassium channel 2 (Homo sapiens), sequence (P63252 whole entry, looked up): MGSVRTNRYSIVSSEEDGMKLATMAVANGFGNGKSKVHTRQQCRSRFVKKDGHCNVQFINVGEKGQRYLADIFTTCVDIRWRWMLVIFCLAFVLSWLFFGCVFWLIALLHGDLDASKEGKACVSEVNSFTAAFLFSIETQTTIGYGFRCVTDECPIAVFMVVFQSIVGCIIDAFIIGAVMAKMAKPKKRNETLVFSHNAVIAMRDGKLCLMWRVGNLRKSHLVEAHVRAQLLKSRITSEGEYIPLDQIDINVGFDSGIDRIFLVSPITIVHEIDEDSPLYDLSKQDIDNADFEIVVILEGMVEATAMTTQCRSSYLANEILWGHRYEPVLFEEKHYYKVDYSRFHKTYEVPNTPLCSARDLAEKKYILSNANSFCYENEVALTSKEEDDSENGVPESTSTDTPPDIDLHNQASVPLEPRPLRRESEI

IC50: > 30 µM
Compound: C[C@H](CC[C@](C)(O)C(F)(F)F)[C@H]1CC[C@H]2[C@@H]3CC=C4C[C@@](C)(O)CC[C@]4(C)[C@H]3CC[C@]12C [Dalzanemdor]
